Measured values from PMC12331936, “Structural Insights into the Protein Mannosyltransferase from Mycobacterium tuberculosis reveal a WW-Domain-Like Protein Motif in Bacteria” (Communications Biology, 2025).

Columns and labels:
[1] = tested on: R441A MtPMT; type: cell-based, M. tuberculosis
[2] = tested on: D74A MtPMT
[3] = tested on: D176A MtPMT

Compound | restored FasC mannosylation, level of the wild type MtPMT [1] | chemical complementation of inactive D74A mutant [2] | chemical complementation of inactive D176A mutant [3]
Cl.N=C(N)N [guanidine chloride, guanidine hydrochloride] | ~ 25 ± 5% |  | 
c1c[nH]cn1 [imidazole] | ~ 25 ± 5% |  | 
[N-]=[N+]=[N-].[Na+] [sodium azide] |  | ineffective | ineffective
CC(=O)[O-].[Na+] [sodium acetate] |  | ineffective | ineffective
